The values below come from patent US6451971B1, “Physiologically active peptides” (Hisamitsu Pharmaceutical Co., Ltd., priority 1999, dated 2002).

Entries after “also recorded” stand apart in the source; their conditions may differ. Where no end group is shown, it is not given here.

Series [1] deals with K562 cell line derived from human chronic myelocytic leukemia. Kind of series: Cell adhesion inhibitory activity on Mn2+-treated anchorage-independent K562 cells on fibronectin-coated plates. Conditions: for cell adhesion inhibitory activity (alanine scanning): K562 cells, biotinylated peptides of Table 1, conducted similarly to Example 2, FIG. 6. It is filed as cell-based. From the text: (§1) (Danen et al., J. Biol. Chem., 270, 37, 21612, 1995; Mould et al., J. Biol. Chem., 270, 44, 26270, 1995.) This allows the cells to acquire adhesiveness to the extracellular matrices mediated by integrins. Such experimental induction of adhesion can be utilized as models for cell adhesion in the processes of metastatis of cancer cells and infiltration of inflammatory cells into tissues.
(§2) The K562 cell line derived from human chronic myelocytic leukemia, U937 cell line derived from human hystiocytic lymphoma and Ramos cell line derived from human Burkitt's lymphoma (all available from American Type Tissue Culture Collection-ATCC), which are one kind of anchorage-independent cells, were then treated with Mn^2+ to prepare a system, where the cell adhesion inhibitory activity of the peptides was evaluated.
Ninety six well plates were coated with fibronectin, which is one kind of extracellular matrix: fibronectin (FN) was prepared by the method of Fukai et al., J. Biol. Chem., 266, 8807, 1991. After cells were suspended to a cell density of 2×10^5/ml in a HEPES buffered physiological saline containing 0.1 mM Mn^2+, the cells (100 μl) were added to the plate and incubated at 37° C. under 5% CO2 for 60 min. Concurrently with addition of the cell suspension, the biotinylated peptide as synthesized in Example 1 (the amino acid sequence of the peptide portion is set forth in SEQ ID NO: 2) was added to the plate to give a final concentration of from 50 to 200 μg/ml. […] As a negative control, the group to which only biotin (unbound with the peptide) had been added was also evaluated.
FN coating was carried out by adding to each well, FN phosphate buffer (100 μl) that had been prepared to 10 μg/ml, by conducting incubation at 37° C. under 5% CO2 for 60 min and then by washing the well with phosphate buffer 3 times. After cells in each well were fixed with 5% formaldehyde (Wako Pure Chemical Industries, Ltd.), unbound cells were removed and five areas were randomly selected in each well to count the cells under a microscope.
The alanine scanning method is a technique that is used to identify amino acid sequence regions essential to physiological activities of proteins and peptides. (Puffer et al., J. Virol., 71, 6541, 1997; Wu and Hersh, J. Biol. Chem., 270, 49, 29111, 1995.) This method was then employed to analyze the present peptides. The peptides listed in Table 1, all of which were biotinylated (Example 1), were used in the experiments. For evaluation, the K562 cells derived from human chronic myelocytic leukemia, which was one kind of anchorage-independent cell, were used.
Evaluation of the cell adhesion inhibitory activity was conducted similarly to Example 2.

Series [2] has as its system human fibrosarcoma HT1080. As to the kind of experiment: Cell adhesion (spreading) inhibitory activity on anchorage-dependent HT1080 cells. To be noted: fibronectin- or vitronectin-coated plates, biotinylated peptide 50 to 200 μg/ml, 60 min. Type of series: cell-based. Here is the method:
(§3) The human melanoma A375SM cells and human fibrosarcoma HT1080 (both available from ATCC), which are anchorage-dependent cells, were used in the evaluation. Cell adhesion inhibitory activity was evaluated according to the method of Fukai et al. as described in Biochem. Biophys. Res. Commun., 220, 394-398, 1996. The number of spread cells was counted as an index of the cell adhesion inhibitory activity.
(§4) A375SM cells or HT1080 cells were prepared to 2×10^5/ml in Dulbecco's Modified Eagle Medium (DMEM: GIBCO BRL) containing 0.1% Ovalbumin (Wako Pure Chemical Industries, Ltd.). This cell suspension (100 μl) was added to 96-well plates that had been coated with fibronectin or vitronectin (VN), which are one kind of extracellular matrix, and incubated at 37° C. under 5% CO2 for 60 min. Concurrently with addition of the cell suspension, the biotinylated peptide as synthesized in Example 1 was added to the plates to give a final concentration of from 50 to 200 μg/ml. […] FN and VN coatings were carried out by adding to each well, FN or VN phosphate buffered saline (100 μl) that had been prepared to 0.5 μg/ml, by conducting incubation at 37° C. under 5% CO2 for 60 min and then by washing the well with phosphate buffered saline 3 times. […]

Series [3] relates to human melanoma A375SM cells. Kind of series: Cell adhesion (spreading) inhibitory activity on anchorage-dependent A375SM cells. Type of series: cell-based. To be noted: fibronectin- or vitronectin-coated plates, biotinylated peptide 50 to 200 μg/ml, 60 min. Here is the method: as §3, §4
The conditions of series [4]: Saiki et al., Jpn. J. Cancer Res., 84, 558, 1993; cited from earlier work.
For series [5] the following is noted: Saiki et al., Jpn. J. Cancer Res., 84, 558, 1993; cited from earlier work. The source holds these as a separate data set.
The next series relates to melanoma cells. Conditions: Humphries, Science 233, 467, 1986; cited from earlier work.
Series [6] deals with U937 cell line derived from human hystiocytic lymphoma. As to the kind of experiment: Cell adhesion inhibitory activity on Mn2+-treated anchorage-independent U937 cells on fibronectin-coated plates. Type of series: cell-based. To be noted: U937 cells in 0.1 mM Mn2+, biotinylated peptide 50 to 200 μg/ml, 60 min, adherent cells counted.
From the text: as §1, §2
(§5) Ninety six well plates were coated with fibronectin, which is one kind of extracellular matrix: fibronectin (FN) was prepared by the method of Fukai et al., J. Biol. Chem., 266, 8807, 1991. After cells were suspended to a cell density of 2×10^5/ml in a HEPES buffered physiological saline containing 0.1 mM Mn^2+, the cells (100 μl) were added to the plate and incubated at 37° C. under 5% CO2 for 60 min. […] As a negative control, the group to which only biotin (unbound with the peptide) had been added was also evaluated. […]

For series [7], the system named is Ramos cell line derived from human Burkitt's lymphoma. As to the kind of experiment: Cell adhesion inhibitory activity on Mn2+-treated anchorage-independent Ramos cells on fibronectin-coated plates. Conditions: Ramos cells in 0.1 mM Mn2+, biotinylated peptide 50 to 200 μg/ml, 60 min, adherent cells counted. Type of series: cell-based.
From the text: as §1, §2, §5

In the case of “Gly Leu Lys Pro Gly Val Asp Tyr Thr Ile Thr Ala Tyr Ala Val (GLKPGVDYTITAYAV; also: biotinylated (place not given here)) [SEQ ID NO: 7]”, the “cell adhesion inhibitory activity (alanine scanning)” value (from here on “cell adhesion inhibitory activity”) in series [1] was “equal to or greater than the cell adhesion inhibitory activity of the peptide set forth in SEQ ID NO: 2”.
Take “Gly Leu Lys Pro Gly Val Asp Ala Thr Ile Thr Val Tyr Ala Val (GLKPGVDATITVYAV; also: biotinylated (place not given here)) [SEQ ID NO: 3]”: the “cell adhesion inhibitory activity” value in series [1] is listed as “equal to or greater than the cell adhesion inhibitory activity of the peptide set forth in SEQ ID NO: 2; also recorded: much greater cell adhesion inhibitory activity compared to the peptide set forth in SEQ ID NO: 2”; in series [1] (listed as SEQ NO: 3), “stronger cell adhesion inhibitory activity than did SEQ NO: 2”.
Regarding “SEQ ID NO: 10: known peptide possessing cell adhesion inhibitory activity (Japanese Unexamined Patent Application Hei 10-147600); sequence not printed in the text (TEATIYGLEPGTEYTIYVIAL) [reference compound]”, the “cell adhesion inhibitory action (number of spread cells)” value in series [2] and in series [3] was “had a cell adhesion inhibitory action; also recorded: possesses a cell spreading inhibitory action” each time.
As to “Gly Leu Lys Pro Gly Val Asp Tyr Thr Ile Thr Val Ala Ala Val (GLKPGVDYTITVAAV; also: biotinylated (place not given here)) [SEQ ID NO: 8]”, in series [1], the “cell adhesion inhibitory activity” value is reported as “equal to or greater than the cell adhesion inhibitory activity of the peptide set forth in SEQ ID NO: 2”.
Consider “Gly Leu Lys Pro Gly Val Asp Tyr Thr Ile Thr Val Tyr Ala Ala (GLKPGVDYTITVYAA; also: biotinylated (place not given here)) [SEQ ID NO: 9]”, for which the “cell adhesion inhibitory activity” value in series [1] is recorded as “equal to or greater than the cell adhesion inhibitory activity of the peptide set forth in SEQ ID NO: 2”.
For “Gly Leu Lys Pro Gly Val Asp Tyr Ala Ile Thr Val Tyr Ala Val (GLKPGVDYAITVYAV; also: biotinylated (place not given here)) [SEQ ID NO: 4]”, in series [1], the “cell adhesion inhibitory activity” value is given as “cell adhesion inhibitory activity was lost”.
On to GRGDS [GRGDS peptide], for which, in series [4], the decomposition by enzyme entry was “liable to be decomposed by enzyme”. For the same substance, the “rate of clearance from the circulation following administration” value in series [5] is listed as “fast”. For the same substance, the “inhibition of experimental metastasis of melanoma cells to the lung” value with melanoma cells is “inhibits the experimental metastasis of melanoma cells to the lung”.
In the case of “Gly Leu Lys Pro Gly Val Asp Tyr Thr Ile Ala Val Tyr Ala Val (GLKPGVDYTIAVYAV; also: biotinylated (place not given here)) [SEQ ID NO: 6]”, in series [1], the “cell adhesion inhibitory activity” value is recorded as “cell adhesion inhibitory activity was lost”.
On the same count and under the same terms, the same measure for “Gly Leu Lys Pro Gly Val Asp Tyr Thr Ala Thr Val Tyr Ala Val (GLKPGVDYTATVYAV; also: biotinylated (place not given here)) [SEQ ID NO: 5]”: “cell adhesion inhibitory activity was lost”.
Take “Gly Leu Lys Pro Gly Val Asp Tyr Thr Ile Thr Val Tyr Ala Val (GLKPGVDYTITVYAV; also: biotinylated (place not given here)) [SEQ ID NO: 2]”: the “cell adhesion inhibitory action (number of spread cells)” value in series [2] and in series [3] was “exhibits no such action at all” each time. The “cell adhesion inhibitory effect” value in series [1] (K562 cells in 0.1 mM Mn2+, fibronectin-coated plates, biotinylated peptide 50 to 200 μg/ml, 60 min, adherent cells counted) is “nearly equal to the activity of a known cell adhesion inhibitory peptide”; in series [6], “nearly equal to the activity of the known cell adhesion inhibitory peptide”; in series [7], “nearly equal to the activity of the known cell adhesion inhibitory peptide”. In addition, the “cell adhesion inhibitory activity” value in series [1] is reported as “cell adhesion inhibitory activity was noted”.
